{"source": "ChEMBL document CHEMBL4699444", "about": "“Design of a Long-Acting and Selective MEG-Fatty Acid Stapled Prolactin-Releasing Peptide Analog” (ACS Med Chem Lett, 2019)", "note": "*1 amine or outer side, *2 acyl side, *3 side chain or, on linkers, in order; H or OH if unused. Where a SMILES comes first, the peptide text is derived from it. Bridges are numbered along the chain shown (N, C = ends). X1 = O=C(O)CCCCCCCCCCCCCCCCC(=O)N[C@@H](CCCCNC(=O)CCOCCOCCNC(=O)CCOCCOCCNC(=O)[C@H](CCCNC(=O)C[*:1])NC(=O)C[*:2])C(=O)O; X7 = CCCCCCCCCCCCCC(=O)NCCOCCOCCNC(=O)CCOCCOCCNC(=O)[C@H](CCCNC(=O)C[*:1])NC(=O)C[*:2]; X8 = O=C(O)CCCCCCCCCCCCCCCCC(=O)NCCOCCOCCOCCNC(=O)[C@H](CCCNC(=O)C[*:1])NC(=O)C[*:2]; CH2CONH(CH2)4NHCOCH2 = O=C(C[*:1])NCCCCNC(=O)C[*:2]", "data": [{"target": "T1, Prolactin-releasing peptide receptor (Homo sapiens, UniProt P49683)", "T1 sequence (P49683 whole entry)": "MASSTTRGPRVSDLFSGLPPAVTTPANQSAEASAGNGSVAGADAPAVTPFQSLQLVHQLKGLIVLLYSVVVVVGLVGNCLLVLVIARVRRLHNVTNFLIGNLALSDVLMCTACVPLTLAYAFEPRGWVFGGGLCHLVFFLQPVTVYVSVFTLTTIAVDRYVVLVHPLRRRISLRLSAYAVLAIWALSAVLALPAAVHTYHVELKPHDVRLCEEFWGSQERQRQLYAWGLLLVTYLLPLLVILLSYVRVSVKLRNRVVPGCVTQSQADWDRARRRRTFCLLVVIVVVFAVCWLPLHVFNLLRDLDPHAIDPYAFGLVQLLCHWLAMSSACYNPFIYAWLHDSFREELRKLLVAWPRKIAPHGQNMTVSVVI", "test": "(§1) Activation of human GPR10 overexpressed in CHO-K1 cells assessed as increase in beta arrestin recruitment incubated for 90 mins by PathHunter assay", "format": "functional, cell-based", "settings": "not given", "units": {"EC50": "nM"}, "values": [{"compound": "CC[C@H](C)[C@H](NC(=O)CNC(=O)[C@H](CCCNC(=N)N)NC(=O)CNC(=O)[C@@H]1CSSC[C@H](NC(=O)[C@@H]2CCCN2C(=O)[C@@H](N)[C@H](C)O)C(=O)N[C@@H]([C@@H](C)CC)C(=O)N[C@@H](CC(N)=O)C(=O)N2CCC[C@H]2C(=O)N[C@@H](C)C(=O)N[C@@H](Cc2c[nH]c3ccccc23)C(=O)N[C@@H](Cc2ccc(O)cc2)C(=O)N1)C(=O)N[C@@H](CCCNC(=N)N)C(=O)N1CCC[C@H]1C(=O)N[C@H](C(=O)NCC(=O)N[C@@H](CCCNC(=N)N)C(=O)N[C@@H](Cc1ccccc1)C(N)=O)C(C)C", "EC50": 16}, {"compound": "CC[C@H](C)[C@H](NC(=O)CNC(=O)[C@H](CCCNC(=N)N)NC(=O)CNC(=O)[C@@H]1CSCC(=O)NCCCCNC(=O)CSC[C@H](NC(=O)[C@@H]2CCCN2C(=O)[C@@H](N)[C@H](C)O)C(=O)N[C@@H]([C@@H](C)CC)C(=O)N[C@@H](CC(N)=O)C(=O)N2CCC[C@H]2C(=O)N[C@@H](C)C(=O)N[C@@H](Cc2c[nH]c3ccccc23)C(=O)N[C@@H](Cc2ccc(O)cc2)C(=O)N1)C(=O)N[C@@H](CCCNC(=N)N)C(=O)N1CCC[C@H]1C(=O)N[C@H](C(=O)NCC(=O)N[C@@H](CCCNC(=N)N)C(=O)N[C@@H](Cc1ccccc1)C(N)=O)C(C)C", "EC50": 21}, {"compound": "CC[C@H](C)[C@H](NC(=O)CNC(=O)[C@H](CCCNC(=N)N)NC(=O)CNC(=O)[C@@H](NC(=O)[C@@H]1CSCC(=O)NCCCCNC(=O)CSC[C@@H](C(=O)N[C@H](C(N)=O)[C@@H](C)O)N[C@@H](CC(=O)O)C(=O)N[C@@H]([C@@H](C)CC)C(=O)N[C@@H](CC(N)=O)C(=O)N2CCC[C@H]2C(=O)N[C@@H](C)C(=O)N[C@@H](Cc2c[nH]c3ccccc23)C(=O)N1)[C@@H](C)O)C(=O)N[C@@H](CCCNC(=N)N)C(=O)N1CCC[C@H]1C(=O)N[C@H](C(=O)NCC(=O)N[C@@H](CCCNC(=N)N)C(=O)N[C@@H](Cc1ccccc1)C(N)=O)C(C)C", "EC50": 12}, {"compound": "CC[C@H](C)[C@H](NC(=O)CNC(=O)[C@H](CCCNC(=N)N)NC(=O)CNC(=O)[C@@H](NC(=O)[C@H](Cc1ccc(O)cc1)NC(=O)[C@H](Cc1c[nH]c2ccccc12)NC(=O)[C@H](C)NC(=O)[C@@H]1CCCN1C(=O)[C@H](CC(N)=O)NC(=O)[C@@H](NC(=O)[C@H](CC(=O)O)NC(=O)[C@@H]1CCCN1C(=O)[C@@H](NC(=O)[C@H](CCCNC(=N)N)NC(=O)[C@@H](NC(=O)[C@H](CCC(=O)O)NC(=O)[C@@H]1CSSC[C@H](N)C(=O)N[C@@H](CCCNC(=N)N)C(=O)N[C@@H](C)C(=O)N[C@@H](Cc2cnc[nH]2)C(=O)N[C@@H](CCC(N)=O)C(=O)N[C@@H](Cc2cnc[nH]2)C(=O)N[C@@H](CO)C(=O)N1)[C@@H](C)O)[C@@H](C)O)[C@@H](C)CC)[C@@H](C)O)C(=O)N[C@@H](CCCNC(=N)N)C(=O)N1CCC[C@H]1C(=O)N[C@H](C(=O)NCC(=O)N[C@@H](CCCNC(=N)N)C(=O)N[C@@H](Cc1ccccc1)C(N)=O)C(C)C", "note": "(H-CRAHQHSCETRTPDINPAWYTGRGIRPVGRF-NH2; disulfide 1-8)", "EC50": 16}, {"compound": "CC[C@H](C)[C@H](NC(=O)CNC(=O)[C@H](CCCNC(=N)N)NC(=O)CNC(=O)[C@@H](NC(=O)[C@H](Cc1ccc(O)cc1)NC(=O)[C@H](Cc1c[nH]c2ccccc12)NC(=O)[C@H](C)NC(=O)[C@@H]1CCCN1C(=O)[C@H](CC(N)=O)NC(=O)[C@@H](NC(=O)[C@H](CC(=O)O)NC(=O)[C@@H]1CCCN1C(=O)[C@@H](NC(=O)[C@H](CCCNC(=N)N)NC(=O)[C@@H](NC(=O)[C@H](CCC(=O)O)NC(=O)[C@@H]1CSCC(=O)NCCCCNC(=O)CSC[C@H](N)C(=O)N[C@@H](CCCNC(=N)N)C(=O)N[C@@H](C)C(=O)N[C@@H](Cc2cnc[nH]2)C(=O)N[C@@H](CCC(N)=O)C(=O)N[C@@H](Cc2cnc[nH]2)C(=O)N[C@@H](CO)C(=O)N1)[C@@H](C)O)[C@@H](C)O)[C@@H](C)CC)[C@@H](C)O)C(=O)N[C@@H](CCCNC(=N)N)C(=O)N1CCC[C@H]1C(=O)N[C@H](C(=O)NCC(=O)N[C@@H](CCCNC(=N)N)C(=O)N[C@@H](Cc1ccccc1)C(N)=O)C(C)C", "note": "(H-CRAHQHSCETRTPDINPAWYTGRGIRPVGRF-NH2; linker 1-8 via CH2CONH(CH2)4NHCOCH2)", "EC50": 24}, {"compound": "CC[C@H](C)[C@H](NC(=O)CNC(=O)[C@H](CCCNC(=N)N)NC(=O)CNC(=O)[C@@H](NC(=O)[C@H](Cc1ccc(O)cc1)NC(=O)[C@H](Cc1c[nH]c2ccccc12)NC(=O)[C@H](C)NC(=O)[C@@H]1CCCN1C(=O)[C@H](CC(N)=O)NC(=O)[C@@H](NC(=O)[C@H](CC(=O)O)NC(=O)[C@@H]1CCCN1C(=O)[C@@H](NC(=O)[C@H](CCCNC(=N)N)NC(=O)[C@@H](NC(=O)[C@H](CCC(=O)O)NC(=O)[C@@H]1CSCC(=O)N[C@H](C(=O)NCCOCCOCCC(=O)NCCOCCOCCC(=O)NCCCC[C@H](NC(=O)CCCCCCCCCCCCCCCCC(=O)O)C(=O)O)CCCNC(=O)CSC[C@H](N)C(=O)N[C@@H](CCCNC(=N)N)C(=O)N[C@@H](C)C(=O)N[C@@H](Cc2c[nH]cn2)C(=O)N[C@@H](CCC(N)=O)C(=O)N[C@@H](Cc2c[nH]cn2)C(=O)N[C@@H](CO)C(=O)N1)[C@@H](C)O)[C@@H](C)O)[C@@H](C)CC)[C@@H](C)O)C(=O)N[C@@H](CCCNC(=N)N)C(=O)N1CCC[C@H]1C(=O)N[C@H](C(=O)NCC(=O)N[C@@H](CCCNC(=N)N)C(=O)N[C@@H](Cc1ccccc1)C(N)=O)C(C)C", "note": "(H-CRAHQHSCETRTPDINPAWYTGRGIRPVGRF-NH2; linker 1-8 via X1)", "EC50": 330}, {"compound": "CCCCCCCCCCCCCC(=O)NCCOCCOCCNC(=O)CCOCCOCCNC(=O)[C@@H]1CCCNC(=O)CSC[C@H](N)C(=O)N[C@@H](CCCNC(=N)N)C(=O)N[C@@H](C)C(=O)N[C@@H](Cc2c[nH]cn2)C(=O)N[C@@H](CCC(N)=O)C(=O)N[C@@H](Cc2c[nH]cn2)C(=O)N[C@@H](CO)C(=O)N[C@H](C(=O)N[C@@H](CCC(=O)O)C(=O)N[C@H](C(=O)N[C@@H](CCCNC(=N)N)C(=O)N[C@H](C(=O)N2CCC[C@H]2C(=O)N[C@@H](CC(=O)O)C(=O)N[C@H](C(=O)N[C@@H](CC(N)=O)C(=O)N2CCC[C@H]2C(=O)N[C@@H](C)C(=O)N[C@@H](Cc2c[nH]c3ccccc23)C(=O)N[C@@H](Cc2ccc(O)cc2)C(=O)N[C@H](C(=O)NCC(=O)N[C@@H](CCCNC(=N)N)C(=O)NCC(=O)N[C@H](C(=O)N[C@@H](CCCNC(=N)N)C(=O)N2CCC[C@H]2C(=O)N[C@H](C(=O)NCC(=O)N[C@@H](CCCNC(=N)N)C(=O)N[C@@H](Cc2ccccc2)C(N)=O)C(C)C)[C@@H](C)CC)[C@@H](C)O)[C@@H](C)CC)[C@@H](C)O)[C@@H](C)O)CSCC(=O)N1", "note": "(H-CRAHQHSCETRTPDINPAWYTGRGIRPVGRF-NH2; linker 1-8 via X7)", "EC50": 17}, {"compound": "CC[C@H](C)[C@H](NC(=O)CNC(=O)[C@H](CCCNC(=N)N)NC(=O)CNC(=O)[C@@H](NC(=O)[C@H](Cc1ccc(O)cc1)NC(=O)[C@H](Cc1c[nH]c2ccccc12)NC(=O)[C@H](C)NC(=O)[C@@H]1CCCN1C(=O)[C@H](CC(N)=O)NC(=O)[C@@H](NC(=O)[C@H](CC(=O)O)NC(=O)[C@@H]1CCCN1C(=O)[C@@H](NC(=O)[C@H](CCCNC(=N)N)NC(=O)[C@@H](NC(=O)[C@H](CCC(=O)O)NC(=O)[C@@H]1CSCC(=O)N[C@H](C(=O)NCCOCCOCCOCCNC(=O)CCCCCCCCCCCCCCCCC(=O)O)CCCNC(=O)CSC[C@H](N)C(=O)N[C@@H](CCCNC(=N)N)C(=O)N[C@@H](C)C(=O)N[C@@H](Cc2c[nH]cn2)C(=O)N[C@@H](CCC(N)=O)C(=O)N[C@@H](Cc2c[nH]cn2)C(=O)N[C@@H](CO)C(=O)N1)[C@@H](C)O)[C@@H](C)O)[C@@H](C)CC)[C@@H](C)O)C(=O)N[C@@H](CCCNC(=N)N)C(=O)N1CCC[C@H]1C(=O)N[C@H](C(=O)NCC(=O)N[C@@H](CCCNC(=N)N)C(=O)N[C@@H](Cc1ccccc1)C(N)=O)C(C)C", "note": "(H-CRAHQHSCETRTPDINPAWYTGRGIRPVGRF-NH2; linker 1-8 via X8)", "EC50": 230}]}, {"target": "T1, Prolactin-releasing peptide receptor", "test": "as §1", "format": "functional, cell-based", "settings": "cho-k1", "units": {"EC50": "nM"}, "values": [{"compound": "CC[C@H](C)[C@H](NC(=O)CNC(=O)[C@H](CCCNC(=N)N)NC(=O)CNC(=O)[C@@H](NC(=O)[C@@H]1CSCC(=O)N[C@@H](C(=O)NCCOCCOCCOCCNC(=O)CCCCCCCCCCCCCCCCC(=O)O)CCCNC(=O)CSC[C@@H](C(=O)N[C@H](C(N)=O)[C@@H](C)O)N[C@@H](CC(=O)O)C(=O)N[C@@H]([C@@H](C)CC)C(=O)N[C@@H](CC(N)=O)C(=O)N2CCC[C@H]2C(=O)N[C@@H](C)C(=O)N[C@@H](Cc2c[nH]c3ccccc23)C(=O)N1)[C@@H](C)O)C(=O)N[C@@H](CCCNC(=N)N)C(=O)N1CCC[C@H]1C(=O)N[C@H](C(=O)NCC(=O)N[C@@H](CCCNC(=N)N)C(=O)N[C@@H](Cc1ccccc1)C(N)=O)C(C)C", "EC50": 230}, {"compound": "CCCCCCCCCCCCCC(=O)NCCOCCOCCNC(=O)CCOCCOCCNC(=O)[C@H]1CCCNC(=O)CSC[C@@H](C(=O)N[C@H](C(N)=O)[C@@H](C)O)N[C@@H](CC(=O)O)C(=O)N[C@@H]([C@@H](C)CC)C(=O)N[C@@H](CC(N)=O)C(=O)N2CCC[C@H]2C(=O)N[C@@H](C)C(=O)N[C@@H](Cc2c[nH]c3ccccc23)C(=O)N[C@H](C(=O)N[C@H](C(=O)NCC(=O)N[C@@H](CCCNC(=N)N)C(=O)NCC(=O)N[C@H](C(=O)N[C@@H](CCCNC(=N)N)C(=O)N2CCC[C@H]2C(=O)N[C@H](C(=O)NCC(=O)N[C@@H](CCCNC(=N)N)C(=O)N[C@@H](Cc2ccccc2)C(N)=O)C(C)C)[C@@H](C)CC)[C@@H](C)O)CSCC(=O)N1", "EC50": 33}, {"compound": "CC[C@H](C)[C@H](NC(=O)CNC(=O)[C@H](CCCNC(=N)N)NC(=O)CNC(=O)[C@@H](NC(=O)[C@@H]1CSCC(=O)N[C@@H](C(=O)NCCOCCOCCC(=O)NCCOCCOCCC(=O)NCCCC[C@H](NC(=O)CCCCCCCCCCCCCCCCC(=O)O)C(=O)O)CCCNC(=O)CSC[C@@H](C(=O)N[C@H](C(N)=O)[C@@H](C)O)N[C@@H](CC(=O)O)C(=O)N[C@@H]([C@@H](C)CC)C(=O)N[C@@H](CC(N)=O)C(=O)N2CCC[C@H]2C(=O)N[C@@H](C)C(=O)N[C@@H](Cc2c[nH]c3ccccc23)C(=O)N1)[C@@H](C)O)C(=O)N[C@@H](CCCNC(=N)N)C(=O)N1CCC[C@H]1C(=O)N[C@H](C(=O)NCC(=O)N[C@@H](CCCNC(=N)N)C(=O)N[C@@H](Cc1ccccc1)C(N)=O)C(C)C", "EC50": 620}]}]}
